The record followed here is ChEMBL document CHEMBL1201862, “PubChem BioAssay data set” (2004).

Test systems include CAKI-1; COLO 205; HL-60; HOP-62; MOLT-4; Malme-3M; NCI-H226; NCI-H522; OVCAR-3; OVCAR-8; RXF 393; SF-268; SK-OV-3; SN12C; SR; UACC-62.
What all share (test): inhibition of tumour cell growth, NCI panel, 48 h

Each structure is given as a SMILES string.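 1) Cells in 96-well plates. 2) Compound, 48 h, 5 concentrations. 3) Linear interpolation between surrounding doses. 4) Unreached endpoint = highest concentration. GI50 marks 50% less growth.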 Active and inactive are the calls of the source. Rule as the data show it: active = GI50 up to about 1.1 µM and inactive = higher.

For `CCN(CC)CCCCC1CCN(CC(=O)N2c3ccccc3NC(=O)CC2C)CC1` (stereo not given), the GI50 in the assay with CAKI-1 is > 100 µM (inactive); with COLO 205, > 100 µM (inactive); in the assay on HL-60, 64.1 µM (inactive); in the assay with HOP-62 it was > 100 µM (inactive); in the assay on MOLT-4 it was > 100 µM (inactive); in the assay on Malme-3M, > 100 µM (inactive). The GI50 is > 100 µM (inactive) in the assay with NCI-H226; 30.3 µM (inactive) with NCI-H522; > 100 µM (inactive) in the assay with OVCAR-3; > 100 µM (inactive) with OVCAR-8; 76.7 µM (inactive) with RXF 393; > 100 µM (inactive) with SF-268. The GI50 was > 100 µM (inactive) with SK-OV-3, > 100 µM (inactive) with SN12C, 56.6 µM (inactive) in the assay on SR and > 100 µM (inactive) in the assay on UACC-62.

`O=C(Cc1ccccc1)NN1C(=O)C(Cl)C1c1cc(Br)ccc1O` (stereo not given): the GI50 with CAKI-1 is 13 µM (inactive); with COLO 205, 14.1 µM (inactive); in the assay with HL-60, 2.46 µM (inactive); in the assay with HOP-62, 2.65 µM (inactive); in the assay with MOLT-4, 1.04 µM (active); in the assay on Malme-3M it was 13.5 µM (inactive). Also, the GI50 in the assay with NCI-H226 is 30 µM (inactive); with NCI-H522 it was 2.72 µM (inactive); in the assay with OVCAR-3, 2.56 µM (inactive); in the assay on OVCAR-8, 3.87 µM (inactive); in the assay on RXF 393 it was 19.1 µM (inactive); with SF-268, 1.95 µM (inactive). In addition, the GI50 with SK-OV-3 was 4.07 µM (inactive); with SN12C, 7.29 µM (inactive); in the assay on SR it was 1.56 µM (inactive); in the assay with UACC-62, 4.15 µM (inactive).

Turning to `O=C1CC2CCCC23CC2(CCN13)OCCO2` (stereo not given), the GI50 with CAKI-1, with COLO 205, in the assay on HL-60, in the assay on HOP-62, in the assay with MOLT-4 and with Malme-3M was > 100 µM (inactive) throughout. The GI50 in the assay on NCI-H226, with NCI-H522, in the assay with OVCAR-3, with OVCAR-8, in the assay on RXF 393 and in the assay on SF-268 was > 100 µM (inactive) throughout. The GI50 with SK-OV-3, in the assay with SN12C, with SR and with UACC-62 was > 100 µM (inactive) each time.

Regarding `COC(=O)[C@@H](C)[C@H]1CC[C@@](C)(CCC2=C(C)CC3C=C(C)CCC3C2(C)C)OO1` (stereo not given in full), the GI50 in the assay with CAKI-1 is 1.34 µM (inactive); in the assay on COLO 205, 1.66 µM (inactive); in the assay on HL-60, 0.212 µM (active); in the assay with HOP-62, 2.06 µM (inactive); in the assay on MOLT-4 it was 1.04 µM (active); in the assay with Malme-3M, 1.91 µM (inactive). For the same compound, the GI50 with NCI-H226 was 2.04 µM (inactive); with NCI-H522, 0.167 µM (active); with OVCAR-3, 1.92 µM (inactive); in the assay with OVCAR-8, 1.92 µM (inactive); with RXF 393 it was 1.37 µM (inactive); in the assay with SF-268, 1.85 µM (inactive). For the same compound, the GI50 in the assay on SK-OV-3 is 2.4 µM (inactive); in the assay with SN12C it was 1.06 µM (active); with SR it was 1.57 µM (inactive); with UACC-62 it was 1.94 µM (inactive).

As to `Cc1cc(C)c2[s+]snc2c1`, the GI50 in the assay on CAKI-1 was 93.8 µM (inactive); in the assay on COLO 205, > 100 µM (inactive); in the assay with HL-60, 18.3 µM (inactive); with HOP-62, 82.4 µM (inactive); in the assay with MOLT-4 it was 33.9 µM (inactive); with Malme-3M, > 100 µM (inactive). In addition, the GI50 in the assay with NCI-H226 is > 100 µM (inactive); in the assay with NCI-H522, 31.1 µM (inactive); in the assay on OVCAR-3, 97.9 µM (inactive); with OVCAR-8, 33.7 µM (inactive); with RXF 393, 37.4 µM (inactive); with SF-268, 60.5 µM (inactive). In addition, the GI50 in the assay with SK-OV-3 is > 100 µM (inactive); in the assay with SN12C, 47.1 µM (inactive); with SR, 23.8 µM (inactive); in the assay with UACC-62 it was 36.6 µM (inactive).
